Where two headings read alike, the source gives them in different places.
Legend:
HCV genotype 1b replicon = experiment: HCV replicon assay; format: cell-based
Procedure: Huh-7-derived cell line (Zluc) that harbors an HCV genotype 1b replicon and a luciferase reporter gene was grown in Dulbecco's Modified Eagle Medium (DMEM) supplemented with 10% fetal bovine serum, 2 mM GlutaMAX, 1% MEM nonessential amino acids, 100 IU/mL penicillin, 100 μg/mL streptomycin, and 0.5 mg/mL Geneticin® (G418). For dose response testing the cells were seeded in 96-well plates at 7.5×10^3 cells per well in a volume of 50 μL, and incubated at 37° C./5% CO2. Drug solutions were made up freshly in Huh-7 media as 2× stocks. Ten additional 5-fold dilutions were prepared from these stocks in DMEM without G418. At least three hours after Zluc cells were seeded, drug treatment was initiated by adding 50 μL of drug dilutions to the plates in duplicate. Final concentrations of drug ranged from 100 μM to […]. Cells were then incubated at 37° C./5% CO2. Alternatively, compounds were tested at two concentrations (1 μM and 10 μM). […] For this, media was removed from the plates via gentle tapping. Fifty microliters of ONE-glo luciferase assay reagent was added to each well. The plates were shaken gently for 3 min at room temperature and luminescence was measured on a Victor^3 V 1420 multilabel counter (Perkin Elmer) with a 1 second read time using a 700 nm cut-off filter. The EC50 values were calculated from dose response curves from the resulting best-fit equations determined by Microsoft Excel and XLfit 4.1 software. When screening at two fixed concentrations, the results were expressed as % inhibition at 1 μM and 10 μM.

[1] = Cytotoxicity evaluation in Zluc cells (CellTiter-Blue); format: cell-based, human; conditions: human, read-out: HCV Replicon CC50
Procedure: (§1) For cytotoxicity evaluation, Zluc cells were treated with compound as described herein, and cell viability was monitored using the CellTiter-Blue Cell Viability Assay (Promega) by adding 20 μL of the assay solution to each well. The plates were then incubated at 37° C./5% CO2 for at least 3 hours.

fresh mouse hepatocyte = experiment: Release of active metabolite in primary hepatocytes (mouse); format: in vitro ADME; conditions: 10 μM
Procedure: (§2) Plates of fresh human and mouse hepatocytes were obtained on ice. The medium was removed and replaced with hepatocyte culture medium (William's E supplemented with penicillin-streptomycin, 1% L-glutamine, 1% insulin-transferrin-selenium and 0.1 μM Dexamethasone (Invitrogen) or with Invitro GRO HI medium complemented with Torpedo antibiotics (Celsis)). Cells were left overnight in an incubator at 37° C. to acclimatize to culture and the medium.
(§3) Hepatocyte incubations were conducted at a final volume of 0.5 mL hepatocyte culture medium/well (0.8 million cells/well for human and 0.5 million cells/well for mouse; 12 well plate no overlay, collagen coat). Culture medium from overnight incubation of cells was removed and replaced with fresh medium, pre-warmed to 37° C., containing 10 μM of test compound from a stock solution in DMSO (final DMSO concentration was 0.1%). At each specific time point, incubation medium was removed and cell monolayers were carefully washed two times with ice-cold PBS. Following the last wash, all PBS was carefully removed and 1.0 mL of extraction solution (ice-cold 70% methanol/30% water) added. Cells were scraped off and suspended in the extraction solution, transferred to 2 mL polypropylene microfuge tubes and intracellular contents extracted overnight at −20° C.
After the overnight treatment the cellular extracts were prepared by centrifugation at 16,000×g for 10 min to remove cellular debris. The remaining sample was then dried using a refrigerated centrivap concentrator. Dry extracts were reconstituted in 1000 μL of HPLC-grade water and centrifuged at 16,000×g for 10 min. Aliquots (100 μL each) of the supernatant were transferred into a 96 well plate and internal standard (4 ng/mL final concentration) was added as the internal standard (IS) for LC-MS/MS analysis.
The incubation time points were 6, 24 and 48 hours for human hepatocytes and 1, 4, 8, 12 and 24 hours for mouse hepatocytes.

Huh-7 cells = experiment: Release of active metabolite in Huh-7 cells; format: in vitro ADME, human; conditions: for Huh-7 AUC0-72: Table 7
Procedure: Huh-7 cells were plated in 1 mL culture medium (DMEM, containing glucose, L-glutamine and sodium pyruvate, 10% FBS, 100 IU/mL penicillin, 100 μg/mL streptomycin, 2 mM GlutaMAX, 1% MEM non-essential amino acids) at the concentration 0.8, 0.4 and 0.2 million cells per well on 6 well plates for 24, 48 and 72 hr treatment, respectively. Plated cells were incubated overnight at 37° C. in an incubator.
The following morning test compound was diluted to 20 μM from a stock solution in DMSO in fresh culture medium pre-warmed to 37° C. and 1 mL of the solution/well was added to cells. A final medium volume per well was 2.0 mL, test compound concentration in well was 10 μM and final DMSO concentration was 0.1%.
After 24, 48 or 72 hr, the medium was carefully removed and cell monolayers were washed twice with 2 mL ice-cold PBS per well. Following the last wash, all PBS was carefully removed and 1.0 mL of extraction solution (ice-cold 70% methanol) added. The plate was tightly covered with Parafilm, plastic plate cover and Parafilm again and an intracellular content was extracted at −20° C. for 24 hr.
After 24 hr the extracts were transferred into polypropylene microfuge tubes and dry on a refrigerated centrivap concentrator. Dry residues were reconstituted in 250 μL of HPLC-grade water and centrifuged at 16,000×g for 10 min. Aliquots (100 μL each) of the supernatants were transferred into a 96 well plate and internal standard (4 ng/mL final concentration) was added as the internal standard (IS) for LC-MS/MS analysis.

fresh human hepatocytes = experiment: Release of active metabolite in primary hepatocytes (human); format: in vitro ADME; conditions: 10 μM
Procedure: as §2
as §3, with “−20° C. […]” for “−20° C.”

Zluc cells = experiment: Cytotoxicity evaluation in Zluc cells (CellTiter-Blue); format: cell-based, human; conditions: read-out: HCV Replicon CC50
Procedure: as §1

cathepsin A (CatA) = target: T1, cathepsin A (CatA) (Homo sapiens, UniProt P10619); experiment: Hydrolysis of prodrugs by Cathepsin A; format: in vitro ADME; conditions: time not given; 100 μM compound, 37° C., pH 6.0
T1 sequence (P10619 29-326 limits assumed): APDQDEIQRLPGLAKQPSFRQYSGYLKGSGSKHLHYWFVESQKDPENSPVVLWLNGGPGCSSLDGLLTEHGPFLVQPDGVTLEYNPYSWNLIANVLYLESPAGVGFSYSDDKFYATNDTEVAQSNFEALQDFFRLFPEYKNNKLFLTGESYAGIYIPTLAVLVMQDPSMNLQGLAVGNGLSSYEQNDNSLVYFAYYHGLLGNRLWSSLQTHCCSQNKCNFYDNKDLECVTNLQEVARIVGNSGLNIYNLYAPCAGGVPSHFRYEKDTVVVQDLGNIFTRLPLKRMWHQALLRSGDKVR
T1 sequence (P10619 327-480 limits assumed): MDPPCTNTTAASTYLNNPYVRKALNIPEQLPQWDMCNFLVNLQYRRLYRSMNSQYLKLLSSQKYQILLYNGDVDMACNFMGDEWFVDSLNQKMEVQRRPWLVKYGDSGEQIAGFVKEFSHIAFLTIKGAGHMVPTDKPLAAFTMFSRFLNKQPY
Procedure: CatA, cathepsin L (CatL) and CES1 were purchased from R & D Systems (Minneapolis, Minn.). Prior to the enzymatic hydrolysis reactions, CatA was activated according to the manufacturer's instruction. Briefly, CatA (0.05 μg/μL) was incubated with CatL (0.005 μg/μL) for 30 min at 37° C. in 25 mM MES pH 6.0 containing 5 mM DTT. The reaction was stopped by addition of the CatL specific inhibitor E64 (10 μM).
The CatA assay was performed at 37° C. The reaction mixture contained 25 mM MES buffer pH 6.0, 100 mM NaCl, 4 mM DTT and 100 μM of the compound. The reaction was started by addition of the activated CatA enzyme to a final concentration of 0.005 μg/μL. […] Reactions were stopped by mixing the sample with an equal volume of ice-cold methanol, and were loaded on a HPLC for analysis.

[2] = target: T2, carboxylesterase 1 (CES1) (Homo sapiens, UniProt P23141); experiment: Hydrolysis of prodrugs by Carboxylesterase 1; format: in vitro ADME; conditions: for CES1 hydrolysis: 100 μM compound, 37° C., pH 7.5
T2 construct: purchased R & D Systems (Minneapolis, Minn.)
T2 sequence (P23141 18-567): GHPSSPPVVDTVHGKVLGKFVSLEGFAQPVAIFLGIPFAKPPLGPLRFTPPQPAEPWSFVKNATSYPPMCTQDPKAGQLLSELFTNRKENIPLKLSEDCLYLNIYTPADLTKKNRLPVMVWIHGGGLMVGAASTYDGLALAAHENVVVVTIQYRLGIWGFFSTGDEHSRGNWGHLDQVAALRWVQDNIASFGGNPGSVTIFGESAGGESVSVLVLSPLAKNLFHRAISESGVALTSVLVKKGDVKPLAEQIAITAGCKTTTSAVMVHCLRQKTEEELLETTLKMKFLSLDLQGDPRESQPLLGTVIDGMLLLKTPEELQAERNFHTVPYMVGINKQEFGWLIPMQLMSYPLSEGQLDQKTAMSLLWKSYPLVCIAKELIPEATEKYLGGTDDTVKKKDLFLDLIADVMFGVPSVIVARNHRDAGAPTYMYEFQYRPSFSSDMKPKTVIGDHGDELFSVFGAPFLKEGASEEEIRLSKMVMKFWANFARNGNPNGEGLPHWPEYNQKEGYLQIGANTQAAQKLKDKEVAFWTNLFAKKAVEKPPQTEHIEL
Procedure: CES1 assay was performed at 37° C. in the reaction mixture containing 50 mM Tris/HCl buffer pH 7.5 and 100 μM of the compound. Reaction was started by addition of the CES1 to the final concentration 0.01 μg/mL. 100 μL aliquots were taken after 0.5 min, 3 hrs and 21 hrs of the incubation and the reaction was stopped by mixing with 100 μl of the ice-cold methanol prior to HPLC analysis.
Samples were analyzed by HPLC using 5 μC-18, 4.6×250 mm Phenomenex® Columbus column (Phenomenex USA, Calif.). The mobile phase consisted of buffer A (25 mM potassium phosphate with 5 mM tetrabutylammonium dihydrogen phosphate pH 6.3) and buffer B (100% methanol).

[3] = Liver TP formation and liver targeting in vivo (Example 6, Table 7); design: species or system mice and monkey
Source text: The in vitro antiviral inactivity of Z4 and Z2 is thought to reflect an inability of Huh-7 replicon cells to metabolize the prodrug moiety.

[4] = Hepatitis C virus, 72 h, Zluc (Huh-7-derived) cells, luciferase reporter, 72 hours, read-out: HCV Replicon EC50
[5] = Hepatitis C virus, Huh-7, read-out: EC50 (replicon reproduction), genotype 1b HCV replicon-bearing human hepatoma cell line (Huh-7)

| SMILES | EC50 (HCV genotype 1b replicon; [4]) | CC50 [1] | MsH AUC (fresh mouse hepatocyte) | MsH Cmax (fresh mouse hepatocyte) | Huh-7 AUC0-72 (Huh-7 cells) | EC50 (HCV genotype 1b replicon; [5]) | CatA hydrolysis (cathepsin A (CatA)) | Hydrolysis by CES1 [2] | CES1 hydrolysis ([2]; 3 h) | CES1 hydrolysis ([2]; 21 h) | Liver:plasma ratio of drug metabolites [3] | other results |
| --- | --- | --- | --- | --- | --- | --- | --- | --- | --- | --- | --- | --- |
| CC(C)OC(=O)[C@@H](C)NP(=O)(OC[C@H]1O[C@@H](n2ccc(=O)[nH]c2=O)[C@](C)(Cl)[C@@H]1O)Oc1ccccc1 (single isomer, unassigned) [40i Diastereomer 1] | > 10 µM | > 50 µM | 4052 pmol.hr/mill cells | 198 pmol/mill cells |  |  |  |  |  |  |  |  |
| CC(C)OC(=O)[C@H](C)NP(=O)(OC[C@H]1O[C@@H](n2ccc(=O)[nH]c2=O)[C@](C)(Cl)[C@@H]1O)Oc1ccccc1 (single isomer, unassigned) [40ii Diastereomer 2] | 0.25 to 1 µM |  | 1794 pmol.hr/mill cells | 87 pmol/mill cells |  |  |  |  |  |  |  | Huh-7 TP AUC (Huh-7 cells; 10 μM test compound): 14544 pmol.hr/mill cells; Huh-7 TP Cmax (Huh-7 cells; 10 μM test compound): 294 pmol/mill cells; FHH TP AUC (fresh human hepatocytes): 4934 pmol.hr/mill cells; FHH TP Cmax (fresh human hepatocytes): 197 pmol/mill cells; CC50 (Zluc cells): > 50 µM |
| CCOc1nc(N)nc2c1ncn2[C@@H]1O[C@H](COP(=O)(N[C@H](C)C(=O)OC(C)C)Oc2ccccc2)C[C@@]1(C)F (single isomer, unassigned) [502a Diastereomer 1] | 1 to 10 µM | < 50 µM |  |  |  |  |  |  |  |  |  |  |
| CC(C)OC(=O)[C@@H](C)NP(=O)(OC[C@H]1O[C@@H](n2ccc(=O)[nH]c2=O)[C@](C)(Cl)[C@@H]1O)Oc1ccccc1 (single isomer, unassigned) [Compound 40i Diastereomer 1] |  |  |  |  | 436.9 pmol*hr/10^6cells | > 50 µM | 0% | processed | 23% @ | 3 h; 49% | high liver:plasma ratio of drug metabolites |  |
| CC(C)OC(=O)[C@@H](C)NP(=O)(OC[C@H]1O[C@@H](n2ccc(=O)[nH]c2=O)[C@](C)(Cl)[C@@H]1O)Oc1ccccc1 (single isomer, unassigned; diastereomer 2) [Compound 40i Diastereomer 2] |  |  |  |  |  |  | 0% |  |  | 4.5% @ |  | EC50 (HCV genotype 1b replicon; Table 7, read-out: EC50): 7 µM; Liver TP [3]: 4400 pmol·h/g |
| CC(C)OC(=O)[C@@H](C)N[P@@](=O)(OC[C@H]1O[C@@H](n2ccc(=O)[nH]c2=O)[C@](C)(F)[C@@H]1O)Oc1ccccc1 [Compound (804a) Ia (RP isomer), D-Alanine, N—((RP,2′R)-2′-deoxy-2′-fluoro-2′-methyl-P-phenyl-5′-uridylyl)-, 1-methylethyl ester] |  |  |  |  | 720.4 pmol*hr/10^6cells | > 50 µM | 0% | processed | 10% @ | 3 h; 26% | high liver:plasma ratio of drug metabolites | EC50 (HCV genotype 1b replicon; Hepatitis C virus, Table 7, read-out: EC50): > 50 µM |

— US10717758B2, “D-amino acid compounds for liver disease” (priority 2012, dated 2020)
